According to patent US20230037103A1, “USE OF A COMPOUND OF 4-(3-ETHOXY-4-HYDROXYPHENYL) ALKYL KETONE TYPE AGAINST BACTERIA OF THE BURKHOLDERIA CEPACIA COMPLEX” (L’OREAL, priority 2019, published 2023):

What was measured:
[1] = system: bacteria of the Burkholderia cepacia complex; test: Sensitivity test (MIC/MBC by agar dilution and broth dilution) on a Burkholderia strain panel; format: cell-based
Description: The minimum inhibitory concentration (MIC) and the minimum bactericidal concentration (MBC) of compounds of formula (I) of the invention, in particular EZ, were determined by standardized agar dilution and broth dilution tests, described by Rushton et al. Key role for efflux in the preservative susceptibility and adaptive resistance of Burkholderia cepacia complex bacteria. Antimicrobial Agents and Chemotherapy, 2013. 57(7): p. 2972-2980 using TSA/TSB. The culture was carried out at 30° C. in order to be representative of the production and storage of industrial products. Preserving stock solutions (50% w/v) were prepared in DMSO (Sigma-Aldrich, United Kingdom) and volumes were added to the medium so as to achieve the test concentration. The final concentration of DMSO in the presence of the bacterium was verified to be non-toxic (not exceeding 4% v/v) and was included as control condition in the tests in order to eliminate the effect on growth. […] The efficacy and toxicity of the neutralizing solution were evaluated before the experiment, as described in the scientific publication by Lear, J. C., et al. (J. C., et al., Chloroxylenol- and triclosan-tolerant bacteria from industrial sources—Susceptibility to antibiotics and other biocides. International Biodeterioration and Biodegradation, 2006. 57(1): p. 51-56). […]

[2] = system: bacteria of the Burkholderia cepacia complex; test: Reduction in viability of Bcc bacteria (preservative activity); format: cell-based; conditions: in 4 hours
[3] = system: bacteria of the Bcc complex; conditions: levels used in industry; cited from earlier work

In the case of `CCOc1cc(CCC(C)=O)ccc1O` [EZ, 4-(3-ethoxy-4-hydroxyphenyl)butan-2-one], the “inhibitory activity with respect to bacteria of the Burkholderia cepacia complex” value [1] was “very significant inhibitory activity”, the “efficacy against a diversified panel of 57 Burkholderia strains” value ([1]; strains representing species commonly encountered as contaminants, culture at 30° C.) was “excellent efficacy” and the reduction in viability [2] was 6 log.
For `O=C([O-])c1ccccc1.[Na+]` [sodium benzoate], the “efficacy with respect to contamination by bacteria of the Bcc complex” value [3] is listed as “ineffective”.
